Results taken from patent publication US6903113B2, “Urea substituted imidazopyridines” (3M Innovative Properties Company, priority 2000, dated 2005).

Tests used:
[1] = tested on: tumor necrosis factor (α); experiment: Cytokine Induction in Human Cells: tumor necrosis factor (α) by ELISA or IGEN Assay; type: cell-based; parameters: key to Lowest Effective Concentration Tumor Necrosis Factor: A “*” indicates that no induction was seen at any of the tested concentrations; conditions: human PBMC, 18 to 24 hours incubation, compounds generally tested at 30-0.014 μM; for minimal effective concentration: read-out: Lowest Effective Concentration Tumor Necrosis Factor
Description: (§1) An in vitro human blood cell system is used to assess cytokine induction. Activity is based on the measurement of interferon and tumor necrosis factor (α) (IFN and TNF, respectively) secreted into culture media as described by Testerman et. al. In “Cytokine Induction by the Immunomodulators Imiquimod and S-27609”, Journal of Leukocyte Biology, 58, 365-372 (September, 1995).
(§2) Whole blood from healthy human donors is collected by venipuncture into EDTA vacutainer tubes. Peripheral blood mononuclear cells (PBMC) are separated from whole blood by density gradient centrifugation using Histopaque®-1077. Blood is diluted 1:1 with Dulbecco's Phosphate Buffered Saline (DPBS) or Hank's Balanced Salts Solution (HBSS). The PBMC layer is collected and washed twice with DPBS or HBSS and resuspended at 4×10^6 cells/mL in RPMI complete. The PBMC suspension is added to 48 well flat bottom sterile tissue culture plates (Costar, Cambridge, Mass. or Becton Dickinson Labware, Lincoln Park, N.J.) containing an equal volume of RPMI complete media containing test compound.
(§3) The compounds are solubilized in dimethyl sulfoxide (DMSO). The DMSO concentration should not exceed a final concentration of 1% for addition to the culture wells. The compounds are generally tested at concentrations ranging from 30-0.014 μM.
(§4) The solution of test compound is added at 60 μM to the first well containing RPMI complete and serial 3 fold dilutions are made in the wells. The PBMC suspension is then added to the wells in an equal volume, bringing the test compound concentrations to the desired range (30-0.014 μM). The final concentration of PBMC suspension is 2×10^6 cells/mL. The plates are covered with sterile plastic lids, mixed gently and then incubated for 18 to 24 hours at 37° C. in a 5% carbon dioxide atmosphere.
(§5) Following incubation the plates are centrifuged for 10 minutes at 1000 rpm (˜200×g) at 4° C. The cell-free culture supernatant is removed with a sterile polypropylene pipet and transferred to sterile polypropylene tubes. Samples are maintained at −30 to −70° C. until analysis. The samples are analyzed for interferon (α) by ELISA and for tumor necrosis factor (α) by ELISA or IGEN Assay
Tumor necrosis factor (α) (TNF) concentration is determined using ELISA kits available from Biosource International, Camarillo, Calif. Alternately, the TNF concentration can be determined by Origen® M-Series Immunoassay and read on an IGEN M-8 analyzer from IGEN International, Gaithersburg, Md. The immunoassay uses a human TNF capture and detection antibody pair from Biosource International, Camarillo, Calif. Results are expressed in pg/mL.
(§6) The table below lists the lowest concentration found to induce interferon and the lowest concentration found to induce tumor necrosis factor for each compound.

interferon (α) = experiment: Cytokine Induction in Human Cells: interferon (α) by ELISA; type: cell-based; parameters: key to Lowest Effective Concentration Interferon: A “*” indicates that no induction was seen at any of the tested concentrations; conditions: human PBMC, 18 to 24 hours incubation, compounds generally tested at 30-0.014 μM; for minimal effective concentration: read-out: Lowest Effective Concentration Interferon
Description: as §1, §2, §3, §4, §5
Interferon (α) concentration is determined by ELISA using a Human Multi-Species kit from PBL Biomedical Laboratories, New Brunswick, N.J. Results are expressed in pg/mL.
as §6

| Compound | Lowest Effective Concentration Tumor Necrosis Factor [1] | Lowest Effective Concentration Interferon (interferon (α)) | minimal effective concentration [1] [µM] | minimal effective concentration (interferon (α)) [µM] |
| --- | --- | --- | --- | --- |
| CNC(=S)NCCCCn1cnc2c(N)nc(C)c(C)c21 [Example 32] | * | * |  |  |
| CCOCc1nc2c(N)nc(C)cc2n1CCCCNC(=O)NS(=O)(=O)c1ccc(C)cc1 [Example 48] | * | * |  |  |
| CCOCc1nc2c(N)nc(C)c(C)c2n1CCC1CCN(C(=O)N2CCOCC2)CC1 [Example 66, 2-(ethoxymethyl)-6,7-dimethyl-1-{2-[1-(morpholin-4-ylcarbonyl)piperidin-4-yl]ethyl}-1H-imidazo[4,5-c]pyridin-4-amine] |  |  | 10 | 1.11 |
| Cc1nc(N)c2ncn(CCCCNC(=O)Nc3ccc(N(C)C)cc3)c2c1C [Example 24] |  |  | 30 | 10 |
| CCOCc1nc2c(N)nc(C)c(C)c2n1CCC1CCN(C(=S)NC(=O)c2ccco2)CC1 [Example 74, N-[(4-{2-[4-amino-2-(ethoxymethyl)-6,7-dimethyl-1H-imidazo[4,5-c]pyridin-1-yl]ethyl}piperidin-1-yl)carbonothioyl]-2-furamide] |  |  | 1.11 | 0.37 |
| CCOCc1nc2c(N)nc(C)c(C)c2n1CCC1CCN(C(=O)NC(C)C)CC1 [Example 54] |  |  | 3.33 | 1.11 |
| Cc1nc(N)c2ncn(CCCCNC(=O)NS(=O)(=O)c3ccc(Cl)cc3)c2c1C [Example 31] | * | * |  |  |
| CCOCc1nc2c(N)nc(C)cc2n1CCCCNC(=O)Nc1ccc(OC)cc1OC [Example 45] |  |  | 10 | 3.33 |
| CC(=O)c1cccc(NC(=O)NCCCCn2cnc3c(N)nc(C)c(C)c32)c1 [Example 23] | * | * |  |  |
| CCOCc1nc2c(N)nc(C)c(C)c2n1CCC1CCN(C(=O)NCC(=O)OCC)CC1 [Example 59] |  |  | 10 | 1.11 |
| CCOCc1nc2c(N)nc(C)cc2n1CCCCNC(=O)Nc1ccccc1 [Example 39] |  |  | 10 | 3.33 |
| CCOCc1nc2c(N)nc(C)cc2n1CCCCNC(=S)NC [Example 49] |  |  | 30 | 3.33 |
| CCOCc1nc2c(N)nc(C)c(C)c2n1CCC1CCN(C(=O)NC2CCCCC2)CC1 [Example 58] |  |  | 3.33 | 0.37 |
| CCOCc1nc2c(N)nc(C)cc2n1CCCCNC(=S)Nc1ccc(OC)cc1 [Example 52] |  |  | 3.33 | 0.37 |
| Cc1ccc(S(=O)(=O)NC(=O)NCCCCn2cnc3c(N)nc(C)c(C)c32)cc1 [Example 30] | * | * |  |  |
| CCOCc1nc2c(N)nc(C)c(C)c2n1CCC1CCN(C(=O)NS(=O)(=O)c2ccccc2)CC1 [Example 69] | * |  |  | 3.33 |
| CCCCc1nc2c(N)nc(C)c(C)c2n1CCCCNC(=S)Nc1ccccc1 [Example 5, N-[4-(4-Amino-2-butyl-6,7-dimethyl-1H-imidazo[4,5-c]pyridin-1-yl)butyl]-N′-phenylthiourea Hydrate] |  |  | 0.12 | 0.01 |
| CCCCNC(=O)N1CCC(CCn2c(COCC)nc3c(N)nc(C)c(C)c32)CC1 [Example 56] |  |  | 3.33 | 1.11 |
| CCOCc1nc2c(N)nc(C)c(C)c2n1CCC1CCN(C(=O)Nc2ccc(OC)cc2OC)CC1 [Example 65] |  |  | 1.11 | 0.37 |
| Cc1nc(N)c2ncn(CCCCNC(=O)N[C@@H]3C[C@H]3c3ccccc3)c2c1C (relative stereo) [Example 28, N-[4-(4-amino-6,7-dimethyl-1H-imidazo[4,5-c]pyridin-1-yl)butyl]-N′-[(1R*,2S*)-2-phenylcyclopropyl]urea] | * | * |  |  |

| Compound | Lowest Effective Concentration Tumor Necrosis Factor [1] | Lowest Effective Concentration Interferon (interferon (α)) | minimal effective concentration [1] [µM] | minimal effective concentration (interferon (α)) [µM] |
| --- | --- | --- | --- | --- |
| CCOCc1nc2c(N)nc(C)cc2n1CCCCNC(=O)Nc1cccc(C#N)c1 [Example 41] |  |  | 30 | 10 |
| CCOCc1nc2c(N)nc(C)c(C)c2n1CCC1CCN(C(=O)N(C)c2ccccc2)CC1 [Example 68, 4-{2-[4-amino-2-(ethoxymethyl)-6,7-dimethyl-1H-imidazo[4,5-c]pyridin-1-yl]ethyl}-N-methyl-N-phenylpiperidine-1-carboxamide] |  |  | 1.11 | 0.37 |
| CCOCc1nc2c(N)nc(C)c(C)c2n1CCC1CCN(C(=O)Nc2ccccc2)CC1 [Example 57] |  |  | 1.11 | 0.37 |
| COc1ccc(NC(=O)NCCCCn2cnc3c(N)nc(C)c(C)c32)c(OC)c1 [Example 26] |  |  | 30 | 30 |
| Cc1nc(N)c2ncn(CCCCNC(=O)Nc3cccc(C#N)c3)c2c1C [Example 21] | * | * |  |  |
| CCCCc1nc2c(N)nc(C)c(C)c2n1CCCCNC(=O)c1ccccc1 [Example 1, N-[4-(4-Amino-2-butyl-6,7-dimethyl-1H-imidazo[4,5-c]pyridin-1-yl)butyl]benzamide] |  |  | 1.11 | 0.12 |
| CCOCc1nc2c(N)nc(C)c(C)c2n1CCC1CCN(C(=O)Nc2cccc(SC)c2)CC1 [Example 64] |  |  | 1.11 | 0.37 |
| Cc1nc(N)c2ncn(CCCCNC(=S)Nc3ccccc3)c2c1C [Example 33] |  |  | 3.33 | 3.33 |
| Cc1nc(N)c2ncn(CCCCNC(=O)NC(C)C)c2c1C [Example 16] | * | * |  |  |
| CCOCc1nc2c(N)nc(C)c(C)c2n1CCC1CCN(C(=O)Nc2cccc(OC)c2)CC1 [Example 61] |  |  | 1.11 | 0.37 |
| CCOCc1nc2c(N)nc(C)c(C)c2n1CCC1CCN(C(=O)NS(=O)(=O)c2ccc(Cl)cc2)CC1 [Example 70] | * |  |  | 10 |
| CCOCc1nc2c(N)nc(C)cc2n1CCCCNC(=S)NCCc1ccccc1 [Example 51] |  |  | 10 | 3.33 |
| CCOCc1nc2c(N)nc(C)c(C)c2n1CCC1CCN(C(=O)Nc2ccc(N(C)C)cc2)CC1 [Example 63] |  |  | 1.11 | 0.014 |
| Cc1nc(N)c2ncn(CCCCNC(=S)NCCc3ccccc3)c2c1C [Example 34] | * | * |  |  |
| CCOCc1nc2c(N)nc(C)cc2n1CCCCNC(=O)NS(=O)(=O)c1ccccc1 [Example 47] | * | * |  |  |
| CCCCNC(=O)NCCCCn1cnc2c(N)nc(C)c(C)c21 [Example 18] | * | * |  |  |
| CCOCc1nc2c(N)nc(C)c(C)c2n1CCC1CCN(C(=O)Nc2cccc(C#N)c2)CC1 [Example 60] |  |  | 1.11 | 0.37 |
| CCOCc1nc2c(N)nc(C)c(C)c2n1CCC1CCN(C(=O)N[C@@H]2C[C@H]2c2ccccc2)CC1 (relative stereo) [Example 67, 4-{2-[4-amino-2-(ethoxymethyl)-6,7-dimethyl-1H-imidazo[4,5-c]pyridin-1-yl]ethyl}-N-[(1R*,2S*)-2-phenylcyclopropyl]piperidine-1-carboxamide] |  |  | 3.33 | 1.11 |
| CCOCc1nc2c(N)nc(C)cc2n1CCCCNC(=O)NCC(=O)OCC [Example 40] | * |  |  | 3.33 |
